From ChEMBL document CHEMBL5360649, “Potential Broad-Spectrum Antimicrobial, Wound Healing, and Disinfectant Cationic Peptide Crafted from Snake Venom” (J Med Chem, 2023) come the findings set out here.

Calls of active or inactive are those of the source. The calls are words filed in the database; no cut-off is given here.

The nature of data set [1]: Stability in human serum assessed as intact peptide remaining at 1 mM measured after 24 hrs by HPLC analysis. The data set is classed as ADME, cell-free. The conditions noted are these: read-out: Stability.
The next data set relates to Staphylococcus aureus. In words: Antibacterial activity against methicillin resistant Staphylococcus aureus assessed as inhibition of bacterial growth incubated for 0.5 to 8.5 hrs by microtiter plate reader analysis. In kind it is functional, organism-based. As to conditions: dose 1.25-40 µM, time 0.5-8.5 hrs.
Data set [2] relates to Klebsiella pneumoniae. In words: Antibacterial activity against carbapenem resistant Klebsiella pneumoniae ATCC BAA-1705 assessed as inhibition of bacterial growth incubated for 8 hrs at 1.25 to 40 uM by microtiter plate reader analysis. In kind it is functional, organism-based. The conditions noted are these: dose 1.25-40 µM.
In data set [3] the test system is Klebsiella pneumoniae. In words: Antibiofilm activity against preformed biofilm in Klebsiella pneumoniae assessed as decrease in cell viability at 0.5 times of MIC incubated overnight by MTT assay relative to control. The data set is classed as functional. For orientation: Formazan colour is commonly taken as a measure of viable cells.
The species named for data set [4] is Rattus norvegicus. Briefly: Induction of wound healing in surgically-induced Albino Wistar rat wound model assessed as reduction in inflammatory activity at 10 uM measured after 11 days by H&E staining based analysis. The data set is classed as functional. As to conditions: time 11.0 day.
The species entered for data set [5] is Rattus norvegicus. In words: Induction of wound healing in surgically-induced Albino Wistar rat wound model inoculated with methicillin-resistant Staphylococcus aureus assessed as reduction in inflammatory signs at 10 uM measured after 11 days by H&E staining based analysis. The data set is classed as functional. The conditions noted are these: time 11.0 day.

Another data set deals with Escherichia coli. Briefly: Induction of resistance development in Escherichia coli assessed as change in MIC at 0.5 times of MIC incubated with compound for 12 hrs followed by replacement with fresh medium for 12 hrs and measured after 20 repeated cycles. In kind it is functional, organism-based. As to conditions: time 240.0 hrs.

Regarding H-FLPIIKWVKKFFWRWR-OH, the remaining at 24 h, 1000 µM in data set [1] stood at 47.1%. Moreover, the Activity entry was “Dose-Dependent Effect” in the data set with Staphylococcus aureus and 79.96% with Klebsiella pneumoniae [3]. Further, the result with Klebsiella pneumoniae [2], in the data set listed under Rattus norvegicus [4] and in the data set listed under Rattus norvegicus [5] was Active. Also, the result with Escherichia coli was inactive.
